# Reference: publication PMC9653409, “Generative deep learning enables the discovery of a potent and selective RIPK1 inhibitor” (Nature Communications, 2022)
# Where two headings read alike, the source gives them in different places.
# What was measured:
# Experiment in all cases: Kinase inhibitory activity profiling of RI-962@10 µM (406 kinases, Eurofins)
# Assay type in all cases: biochemical
# [1] = biological target: panel of human kinases (kinase named in endpoint) (Homo sapiens, UniProt O00418); details: 10 µM; read-out: Activity (%), eEF-2K(h)
# Outline: (§1)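 Radiometric filter-binding kinase assays: enzyme preincubated 15 min with compound in 8 mM MOPS pH 7.0, 0.2 mM EDTA, 250 μM peptide substrate, 10 mM magnesium acetate, 10 μM [γ-33P]-ATP. Reaction started with Mg/ATP, run 40 min at room temperature, stopped with phosphoric acid; 33P incorporation read by scintillation counting. Other kinases by similar protocols.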
# [2] = biological target: panel of human kinases (kinase named in endpoint) (Homo sapiens, UniProt P00533, L858R); details: 10 µM; read-out: Activity (%), EGFR(L858R)(h)
# Outline: as §1
# [3] = biological target: panel of human kinases (kinase named in endpoint) (Homo sapiens, UniProt P00533, L861Q); details: 10 µM; read-out: Activity (%), EGFR(L861Q)(h)
# Outline: as §1
# [4] = biological target: panel of human kinases (kinase named in endpoint) (Homo sapiens, UniProt P06213); details: 10 µM
# Chain of panel of human kinases (kinase named in endpoint) (Homo sapiens, UniProt P06213) (P06213 28-1382): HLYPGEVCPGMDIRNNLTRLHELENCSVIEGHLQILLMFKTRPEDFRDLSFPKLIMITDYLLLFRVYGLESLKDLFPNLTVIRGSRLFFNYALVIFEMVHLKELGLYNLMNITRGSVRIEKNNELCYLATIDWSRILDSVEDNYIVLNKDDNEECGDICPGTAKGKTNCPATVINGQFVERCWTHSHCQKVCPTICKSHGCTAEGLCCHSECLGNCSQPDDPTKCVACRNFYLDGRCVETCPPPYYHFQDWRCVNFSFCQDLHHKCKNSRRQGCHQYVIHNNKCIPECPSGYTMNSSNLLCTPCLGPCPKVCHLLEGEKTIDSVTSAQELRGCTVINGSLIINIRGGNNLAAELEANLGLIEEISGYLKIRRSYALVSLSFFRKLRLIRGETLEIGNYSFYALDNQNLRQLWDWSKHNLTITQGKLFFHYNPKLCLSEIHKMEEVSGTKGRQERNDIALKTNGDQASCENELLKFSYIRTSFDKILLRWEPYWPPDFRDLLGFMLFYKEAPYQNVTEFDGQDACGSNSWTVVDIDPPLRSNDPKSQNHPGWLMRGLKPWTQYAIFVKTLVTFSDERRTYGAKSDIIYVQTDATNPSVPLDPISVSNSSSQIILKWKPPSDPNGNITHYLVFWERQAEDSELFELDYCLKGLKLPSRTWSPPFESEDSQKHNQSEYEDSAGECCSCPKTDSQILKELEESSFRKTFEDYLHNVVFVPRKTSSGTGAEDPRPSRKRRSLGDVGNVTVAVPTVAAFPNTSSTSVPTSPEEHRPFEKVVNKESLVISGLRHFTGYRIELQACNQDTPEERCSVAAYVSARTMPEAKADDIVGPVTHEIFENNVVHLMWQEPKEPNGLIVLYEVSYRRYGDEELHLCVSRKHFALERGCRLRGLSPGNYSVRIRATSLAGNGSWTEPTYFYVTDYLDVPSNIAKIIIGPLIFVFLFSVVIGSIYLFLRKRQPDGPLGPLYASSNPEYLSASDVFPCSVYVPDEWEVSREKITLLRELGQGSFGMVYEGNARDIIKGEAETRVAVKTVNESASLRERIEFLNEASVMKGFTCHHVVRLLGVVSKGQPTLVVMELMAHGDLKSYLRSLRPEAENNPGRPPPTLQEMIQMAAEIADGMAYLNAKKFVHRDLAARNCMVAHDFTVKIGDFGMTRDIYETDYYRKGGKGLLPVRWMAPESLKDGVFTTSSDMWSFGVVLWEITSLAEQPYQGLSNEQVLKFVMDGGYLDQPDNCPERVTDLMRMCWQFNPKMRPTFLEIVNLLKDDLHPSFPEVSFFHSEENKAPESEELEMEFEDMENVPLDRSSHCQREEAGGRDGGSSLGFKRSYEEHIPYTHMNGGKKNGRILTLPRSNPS
# Outline: as §1
# [5] = biological target: panel of human kinases (kinase named in endpoint) (Homo sapiens, UniProt P06241); details: 10 µM; read-out: Activity (%), Fyn(h)
# Outline: as §1
# [6] = biological target: panel of human kinases (kinase named in endpoint) (Homo sapiens, UniProt P07333, Y969C); details: 10 µM; read-out: Activity (%), Fms(Y969C)(h)
# Chain of panel of human kinases (kinase named in endpoint) (Homo sapiens, UniProt P07333, Y969C) (P07333 20-972 Y969C): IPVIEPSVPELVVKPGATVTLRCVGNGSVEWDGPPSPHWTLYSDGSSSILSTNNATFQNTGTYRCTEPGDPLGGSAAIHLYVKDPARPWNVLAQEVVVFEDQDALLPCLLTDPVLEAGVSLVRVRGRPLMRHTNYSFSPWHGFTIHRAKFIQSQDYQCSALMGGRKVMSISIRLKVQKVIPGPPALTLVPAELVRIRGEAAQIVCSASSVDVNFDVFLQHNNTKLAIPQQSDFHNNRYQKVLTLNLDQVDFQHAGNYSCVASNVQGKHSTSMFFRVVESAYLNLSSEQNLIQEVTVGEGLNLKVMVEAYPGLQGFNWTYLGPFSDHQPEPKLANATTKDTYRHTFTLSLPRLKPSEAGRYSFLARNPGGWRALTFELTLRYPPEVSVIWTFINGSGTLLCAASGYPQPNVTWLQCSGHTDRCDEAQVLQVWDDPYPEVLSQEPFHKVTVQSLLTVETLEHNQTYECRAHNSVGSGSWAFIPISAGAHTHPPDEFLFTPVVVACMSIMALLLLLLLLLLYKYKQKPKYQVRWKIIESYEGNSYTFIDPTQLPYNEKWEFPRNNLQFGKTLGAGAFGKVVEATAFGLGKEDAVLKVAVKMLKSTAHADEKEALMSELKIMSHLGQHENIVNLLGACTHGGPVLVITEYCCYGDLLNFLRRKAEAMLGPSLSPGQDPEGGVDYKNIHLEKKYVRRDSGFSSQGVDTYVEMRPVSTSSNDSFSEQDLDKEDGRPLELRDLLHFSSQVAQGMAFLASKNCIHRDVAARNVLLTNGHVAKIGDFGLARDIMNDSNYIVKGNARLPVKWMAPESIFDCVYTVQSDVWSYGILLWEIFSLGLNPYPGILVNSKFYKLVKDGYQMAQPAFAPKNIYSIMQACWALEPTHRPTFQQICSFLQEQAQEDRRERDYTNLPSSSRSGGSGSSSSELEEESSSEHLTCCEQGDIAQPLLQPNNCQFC
# Outline: as §1
# [7] = biological target: panel of human kinases (kinase named in endpoint) (Homo sapiens, UniProt P08581, Y1230C); details: 10 µM; read-out: Activity (%), Met(Y1248C)(h)
# Outline: as §1
# [8] = biological target: panel of human kinases (kinase named in endpoint) (Homo sapiens, UniProt P08922); details: 10 µM; read-out: Activity (%), Ros(h)
# Outline: as §1
# [9] = biological target: panel of human kinases (kinase named in endpoint) (Homo sapiens, UniProt P12931, T341M); details: 10 µM; read-out: Activity (%), Src(T341M)(h)
# Outline: as §1
# [10] = biological target: panel of human kinases (kinase named in endpoint) (Homo sapiens, UniProt P24941); details: 10 µM
# Outline: as §1
# [11] = biological target: panel of human kinases (kinase named in endpoint) (Homo sapiens, UniProt P29376); details: 10 µM; read-out: Activity (%), LTK(h)
# Outline: as §1
# [12] = biological target: panel of human kinases (kinase named in endpoint) (Homo sapiens, UniProt P36507); details: 10 µM; read-out: Activity (%), MEK2(h)
# Outline: as §1
# [13] = biological target: panel of human kinases (kinase named in endpoint) (Homo sapiens, UniProt P37023); details: 10 µM; read-out: Activity (%), ALK1(h)
# Outline: as §1
# [14] = biological target: panel of human kinases (kinase named in endpoint) (Homo sapiens, UniProt P41743); details: 10 µM; read-out: Activity (%), PKCι(h)
# Chain of panel of human kinases (kinase named in endpoint) (Homo sapiens, UniProt P41743) (P41743 whole entry): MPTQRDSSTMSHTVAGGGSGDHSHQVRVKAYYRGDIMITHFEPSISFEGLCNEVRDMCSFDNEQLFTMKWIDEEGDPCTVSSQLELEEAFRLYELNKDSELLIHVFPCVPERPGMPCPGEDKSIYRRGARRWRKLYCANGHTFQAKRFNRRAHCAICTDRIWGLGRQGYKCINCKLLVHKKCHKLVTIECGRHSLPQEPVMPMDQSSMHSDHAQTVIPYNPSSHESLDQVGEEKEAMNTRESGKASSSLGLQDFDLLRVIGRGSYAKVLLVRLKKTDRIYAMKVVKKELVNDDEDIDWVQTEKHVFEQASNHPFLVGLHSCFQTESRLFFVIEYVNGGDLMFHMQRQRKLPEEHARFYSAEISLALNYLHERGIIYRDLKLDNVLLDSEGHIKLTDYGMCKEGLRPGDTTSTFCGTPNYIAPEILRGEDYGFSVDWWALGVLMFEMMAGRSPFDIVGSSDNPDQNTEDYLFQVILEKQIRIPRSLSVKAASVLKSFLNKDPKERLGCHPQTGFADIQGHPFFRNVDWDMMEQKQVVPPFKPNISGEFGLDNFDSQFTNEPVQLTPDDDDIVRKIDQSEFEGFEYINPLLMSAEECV
# Outline: as §1
# [15] = biological target: panel of human kinases (kinase named in endpoint) (Homo sapiens, UniProt Q00532); details: 10 µM; read-out: Activity (%), CDKL1(h)
# Outline: as §1
# [16] = biological target: panel of human kinases (kinase named in endpoint) (Homo sapiens, UniProt Q15303); details: 10 µM; read-out: Activity (%), ErbB4(h)
# Outline: as §1
# [17] = biological target: panel of human kinases (kinase named in endpoint) (Homo sapiens, UniProt Q52WX2); details: 10 µM; read-out: Activity (%), SBK1(h)
# Chain of panel of human kinases (kinase named in endpoint) (Homo sapiens, UniProt Q52WX2) (Q52WX2 whole entry): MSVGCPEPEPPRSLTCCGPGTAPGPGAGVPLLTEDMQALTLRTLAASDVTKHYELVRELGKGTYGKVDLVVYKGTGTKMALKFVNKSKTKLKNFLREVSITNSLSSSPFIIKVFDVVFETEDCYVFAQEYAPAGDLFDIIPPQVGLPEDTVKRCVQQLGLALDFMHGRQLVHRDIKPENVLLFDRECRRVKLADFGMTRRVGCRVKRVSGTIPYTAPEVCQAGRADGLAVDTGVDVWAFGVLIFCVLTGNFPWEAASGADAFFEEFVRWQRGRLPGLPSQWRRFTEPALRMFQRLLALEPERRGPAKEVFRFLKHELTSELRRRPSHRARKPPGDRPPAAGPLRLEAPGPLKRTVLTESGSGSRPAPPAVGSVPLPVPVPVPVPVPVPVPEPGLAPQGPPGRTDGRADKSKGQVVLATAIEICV
# Outline: as §1
# [18] = biological target: panel of human kinases (kinase named in endpoint) (Homo sapiens, UniProt Q6IQ55); details: 10 µM; read-out: Activity (%), TTBK2(h)
# Outline: as §1
# [19] = biological target: panel of human kinases (kinase named in endpoint) (Homo sapiens, UniProt Q6SA08); details: 10 µM; read-out: Activity (%), TSSK4(h)
# Outline: as §1
# [20] = biological target: panel of human kinases (kinase named in endpoint) (Homo sapiens, UniProt Q92772); details: 10 µM; read-out: Activity (%), CDKL2(h)
# Outline: as §1
# [21] = biological target: panel of human kinases (kinase named in endpoint) (Homo sapiens, UniProt Q96L34); details: 10 µM; read-out: Activity (%), MARK4(h)
# Chain of panel of human kinases (kinase named in endpoint) (Homo sapiens, UniProt Q96L34) (Q96L34 whole entry): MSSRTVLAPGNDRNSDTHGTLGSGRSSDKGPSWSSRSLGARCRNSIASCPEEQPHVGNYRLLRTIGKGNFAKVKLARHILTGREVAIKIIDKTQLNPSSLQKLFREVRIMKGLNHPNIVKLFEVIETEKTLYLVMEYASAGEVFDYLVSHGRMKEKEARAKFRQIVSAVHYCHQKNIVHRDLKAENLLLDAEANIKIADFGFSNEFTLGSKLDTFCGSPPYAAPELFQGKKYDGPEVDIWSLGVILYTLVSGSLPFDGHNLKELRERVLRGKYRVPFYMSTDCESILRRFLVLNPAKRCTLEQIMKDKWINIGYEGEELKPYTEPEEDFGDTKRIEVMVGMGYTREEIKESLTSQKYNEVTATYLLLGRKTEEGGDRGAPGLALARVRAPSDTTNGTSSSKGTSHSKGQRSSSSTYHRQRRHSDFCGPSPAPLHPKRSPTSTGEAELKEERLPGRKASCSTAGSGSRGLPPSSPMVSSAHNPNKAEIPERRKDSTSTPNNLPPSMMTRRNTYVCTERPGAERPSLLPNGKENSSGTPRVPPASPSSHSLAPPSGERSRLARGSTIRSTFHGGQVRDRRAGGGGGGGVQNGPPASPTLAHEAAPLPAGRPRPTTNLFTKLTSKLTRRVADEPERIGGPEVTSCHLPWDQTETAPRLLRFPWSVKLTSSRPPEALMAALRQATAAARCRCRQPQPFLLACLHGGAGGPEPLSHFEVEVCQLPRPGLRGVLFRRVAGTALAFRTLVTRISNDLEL
# Outline: as §1
# [22] = biological target: panel of human kinases (kinase named in endpoint) (Homo sapiens, UniProt Q9C098); details: 10 µM; read-out: Activity (%), DCAMKL3(h)
# Chain of panel of human kinases (kinase named in endpoint) (Homo sapiens, UniProt Q9C098) (Q9C098 whole entry): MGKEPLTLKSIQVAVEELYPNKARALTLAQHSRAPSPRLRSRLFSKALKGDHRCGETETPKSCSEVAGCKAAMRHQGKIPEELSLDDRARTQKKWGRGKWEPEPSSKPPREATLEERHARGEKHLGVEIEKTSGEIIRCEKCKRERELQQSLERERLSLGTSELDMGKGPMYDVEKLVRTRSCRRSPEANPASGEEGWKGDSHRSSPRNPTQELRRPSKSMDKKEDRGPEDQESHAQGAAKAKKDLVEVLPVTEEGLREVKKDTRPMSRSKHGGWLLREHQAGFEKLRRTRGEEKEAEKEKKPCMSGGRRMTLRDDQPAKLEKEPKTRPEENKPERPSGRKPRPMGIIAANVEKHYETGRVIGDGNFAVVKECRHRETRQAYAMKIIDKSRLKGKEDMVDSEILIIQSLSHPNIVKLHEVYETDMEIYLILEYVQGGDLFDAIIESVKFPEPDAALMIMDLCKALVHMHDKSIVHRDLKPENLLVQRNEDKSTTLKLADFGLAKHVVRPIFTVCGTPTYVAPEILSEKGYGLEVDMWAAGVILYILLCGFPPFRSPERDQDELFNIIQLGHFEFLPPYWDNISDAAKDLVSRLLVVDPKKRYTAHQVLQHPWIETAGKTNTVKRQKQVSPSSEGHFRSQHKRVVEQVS
# Outline: as §1
# [23] = biological target: panel of human kinases (kinase named in endpoint) (Homo sapiens, UniProt Q9HC98); details: 10 µM; read-out: Activity (%), NEK6(h)
# Chain of panel of human kinases (kinase named in endpoint) (Homo sapiens, UniProt Q9HC98) (Q9HC98 whole entry): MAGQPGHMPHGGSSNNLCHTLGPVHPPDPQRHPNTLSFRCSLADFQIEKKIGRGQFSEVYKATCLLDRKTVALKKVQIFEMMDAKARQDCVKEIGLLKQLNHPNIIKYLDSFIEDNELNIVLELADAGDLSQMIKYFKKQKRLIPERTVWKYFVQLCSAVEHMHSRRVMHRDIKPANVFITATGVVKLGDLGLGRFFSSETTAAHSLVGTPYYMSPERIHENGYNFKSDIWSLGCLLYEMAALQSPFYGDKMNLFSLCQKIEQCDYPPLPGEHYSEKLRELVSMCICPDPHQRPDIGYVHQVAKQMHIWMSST
# Outline: as §1
# [24] = biological target: panel of human kinases (kinase named in endpoint) (Homo sapiens, UniProt Q9NSY1); details: 10 µM; read-out: Activity (%), BIKe(h)
# Outline: as §1
# [25] = biological target: panel of human kinases (kinase named in endpoint) (Homo sapiens, UniProt Q9UM73); details: 10 µM; read-out: Activity (%), ALK(h)
# Outline: as §1
compound,measurement,setting,value
CC(C)C(=O)Nc1nc2cc(-c3ccc4c(c3)c(C(=O)NC(C)c3ccccc3)cn4C)ccn2n1 (stereo not drawn) [RI-962],activity at 10 µM,[1],112%
same,activity at 10 µM,[2],93%
same,activity at 10 µM,[3],82%
same,activity at 10 µM,"[4]; read-out: Activity (%), IR(h)",103%
same,activity at 10 µM,"[4]; read-out: Activity (%), IR(h), activated",89%
same,activity at 10 µM,[5],107%
same,activity at 10 µM,[6],73%
same,activity at 10 µM,[7],116%
same,activity at 10 µM,[8],106%
same,activity at 10 µM,[9],100%
same,activity at 10 µM,"[10]; read-out: Activity (%), CDK2/cyclinA(h)",122%
same,activity at 10 µM,"[10]; read-out: Activity (%), CDK2/cyclinE(h)",92%
same,activity at 10 µM,[11],100%
same,activity at 10 µM,[12],86%
same,activity at 10 µM,[13],94%
same,activity at 10 µM,[14],97%
same,activity at 10 µM,[15],98%
same,activity at 10 µM,[16],98%
same,activity at 10 µM,[17],112%
same,activity at 10 µM,[18],81%
same,activity at 10 µM,[19],104%
same,activity at 10 µM,[20],77%
same,activity at 10 µM,[21],102%
same,activity at 10 µM,[22],100%
same,activity at 10 µM,[23],99%
same,activity at 10 µM,[24],60%
same,activity at 10 µM,[25],68%
